According to patent publication US8563013B2, “Systems and methods for delivering a fluid drug” (Janssen Biotech, Inc., priority 2007, dated 2013):

Test: Light-induced degradation of a carbidopa-containing fluid formulation
Format: physicochemical
Settings: fluid formulation having carbidopa; visible light with wavelengths in the range of about 400 nm to about 550 nm
Description: In some embodiments, the reservoir, and/or other portions of a dosing container, can be adapted to hinder exposure of a contained fluid from portions of a light spectrum, which can be capable of degrading or rendering one or more components of a fluid ineffective. […] Accordingly, if a container is adapted to hinder a carbidopa-containing fluid from being exposed to at least wavelengths in about the 400 nm to about 550 nm range, preservation of the carbidopa can be enhanced. As well, other embodiments can utilize other techniques, in combination or alone, which effectively reduce degradation of a carbidopa-containing fluid in the presence of visible light, such as adding a dye to the carbidopa-containing fluid (e.g., FD&C Yellow 6) to absorb the undesired light components. Other techniques, including ones familiar to those skilled in the art, can also be used.

## C[C@@](Cc1ccc(O)c(O)c1)(NN)C(=O)O [carbidopa]
  degradation on exposure to light: found to degrade
